# Target: Histone deacetylase 2 (Homo sapiens, UniProt Q92769)
# Assay: Inhibition of full-length recombinant human C-terminal GST tagged HDAC2 expressed in Sf9 insect cells using aminoluciferin peptide substrate at 100 nM preincubated for 3 hrs followed by substrate addition and measured after 30 mins by HDAC-Glo I/II chemiluminescence assay
# Conditions: time 3.5 hrs
# Chain of Histone deacetylase 2 (Q92769 whole entry): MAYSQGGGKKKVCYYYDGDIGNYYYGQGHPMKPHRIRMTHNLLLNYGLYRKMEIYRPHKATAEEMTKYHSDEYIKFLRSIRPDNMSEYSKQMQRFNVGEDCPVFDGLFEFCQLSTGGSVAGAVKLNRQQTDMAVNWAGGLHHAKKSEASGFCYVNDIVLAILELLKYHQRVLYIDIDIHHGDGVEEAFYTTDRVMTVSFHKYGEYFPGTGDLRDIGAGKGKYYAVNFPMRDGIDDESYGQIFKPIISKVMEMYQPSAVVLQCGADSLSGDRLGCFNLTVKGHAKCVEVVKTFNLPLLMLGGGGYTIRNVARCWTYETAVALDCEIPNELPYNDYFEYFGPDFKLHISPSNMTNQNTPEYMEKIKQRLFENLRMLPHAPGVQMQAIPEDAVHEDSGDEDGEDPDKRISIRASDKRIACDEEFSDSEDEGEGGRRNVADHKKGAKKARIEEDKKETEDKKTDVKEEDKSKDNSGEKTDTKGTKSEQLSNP
row,SMILES,inhibition
1,Nc1ccc(-c2ccsc2)cc1NC(=O)c1cn(CCc2ccsc2)nn1,0%
2,COc1ccc(-n2cc(C(=O)Nc3cc(-c4ccccc4)ccc3N)nn2)cc1,2%
3,Nc1ccc(-c2ccc(F)cc2)cc1NC(=O)c1cn(/C=C/c2ccccc2)nn1,3%
4,Nc1ccc(-c2ccsc2)cc1NC(=O)CCc1cn(CCc2ccc(C(F)(F)F)cc2)nn1,2%
5,Cc1cccc(C)c1NC(=O)Cn1cc(C(=O)Nc2cc(-c3cccs3)ccc2N)nn1,21%
6,Nc1ccc(-c2ccsc2)cc1NC(=O)CCc1cn(-c2ccc(I)cc2)nn1,0%
7,Nc1ccc(-c2cccs2)cc1NC(=O)CCc1cn(Cc2cccc(C(=O)O)c2)nn1,3%
8,COc1ccc(-n2cc(C(=O)Nc3cc(-c4ccc(F)cc4)ccc3N)nn2)cc1,16%
9,Nc1ccc(-c2ccc(F)cc2)cc1NC(=O)c1cn(Cc2nc3ccccc3[nH]2)nn1,37%
10,Nc1ccc(-c2ccccc2)cc1NC(=O)CCc1cn(CCC23CC4CC(CC(C4)C2)C3)nn1,0%
11,Nc1ccc(-c2ccccc2)cc1NC(=O)CCc1cn(CCc2cccc(Cl)c2)nn1,1%
12,Nc1ccc(-c2ccccc2)cc1NC(=O)c1cn(Cc2cccc(C(=O)O)c2)nn1,0%
13,Nc1ccc(-c2cccs2)cc1NC(=O)c1ccc(-c2cn(CCC3CCCCC3)nn2)s1,0%
14,Nc1ccc(-c2ccc(F)cc2)cc1NC(=O)CCc1cn(Cc2cc3ccccc3s2)nn1,3%
15,Nc1ccc(-c2cccs2)cc1NC(=O)c1cn(/C=C/c2ccccc2)nn1,12%
16,Nc1ccc(-c2cccs2)cc1NC(=O)CCc1cn(CCc2ccccn2)nn1,7%
17,Cc1csc(CCn2cc(CCC(=O)Nc3cc(-c4cccs4)ccc3N)nn2)n1,30%
18,Nc1ccc(-c2cccs2)cc1NC(=O)c1cn(CC2CCCCC2)nn1,1%
19,COc1ccc(-n2cc(CCC(=O)Nc3cc(-c4ccc(F)cc4)ccc3N)nn2)cc1,10%
20,Nc1ccc(-c2ccc(F)cc2)cc1NC(=O)CCc1cn(CCCCCCCC(=O)O)nn1,15%

row,SMILES,inhibition
1,Nc1ccc(-c2ccccc2)cc1NC(=O)c1cn(CCc2cccc(-c3ccccc3)c2)nn1,0%
2,Nc1ccc(-c2ccccc2)cc1NC(=O)CCc1cn(CCc2ccccc2C(F)(F)F)nn1,0%
3,Nc1ccc(-c2ccsc2)cc1NC(=O)c1cn(Cc2nc3ccccc3[nH]2)nn1,25%
4,Nc1ccc(-c2ccccc2)cc1NC(=O)CCc1cn(CCc2cccc([N+](=O)[O-])c2)nn1,30%
5,Nc1ccc(-c2ccsc2)cc1NC(=O)CCc1cn(Cc2ccc(-c3ccccc3)cc2)nn1,0%
6,Nc1ccc(-c2cccs2)cc1NC(=O)c1cn(CCN2CCOCC2)nn1,0%
7,Cc1cccc(C)c1NC(=O)Cn1cc(C(=O)Nc2cc(-c3ccccc3)ccc2N)nn1,9%
8,CCc1ccc(Cn2cc(C(=O)Nc3cc(-c4ccsc4)ccc3N)nn2)cc1,0%
9,Nc1ccc(-c2ccccc2)cc1NC(=O)CCc1cn(Cc2ccc(-c3ccccc3)cc2)nn1,0%
10,CCc1ccc(Cn2cc(CCC(=O)Nc3cc(-c4ccc(F)cc4)ccc3N)nn2)cc1,2%
11,Nc1ccc(-n2cc(C(=O)Nc3cc(-c4ccccc4)ccc3N)nn2)cc1,11%
12,Nc1ccc(-c2cccs2)cc1NC(=O)CCc1cn(CCCCC(=O)O)nn1,2%
13,Nc1ccc(-c2ccc(F)cc2)cc1NC(=O)c1cn(CCC2CCCCC2)nn1,5%
14,Nc1ccc(-c2cccs2)cc1NC(=O)c1cccc(-c2cn(CC34CC5CC(CC(C5)C3)C4)nn2)c1,0%
15,Nc1ccc(-c2ccccc2)cc1NC(=O)CCc1cn(CCc2ccc([N+](=O)[O-])cc2)nn1,13%
16,Nc1ccc(-c2ccsc2)cc1NC(=O)c1cn(CCC2CCCC2)nn1,0%
17,Nc1ccc(-c2ccccc2)cc1NC(=O)c1cn(CCC2CCCC2)nn1,0%
18,Nc1ccc(-c2ccc(F)cc2)cc1NC(=O)CCc1cn(-c2ccc(O)cc2)nn1,3%
19,Cc1cccc(C)c1NC(=O)Cn1cc(C(=O)Nc2cc(-c3ccsc3)ccc2N)nn1,24%
20,Nc1ccc(-c2ccc(F)cc2)cc1NC(=O)CCc1cn(CCc2c[nH]c3ccccc23)nn1,30%

# Results, then the compound that gave them:
row,inhibition,SMILES
1,5%,Cc1cccc(CCn2cc(-c3cccc(C(=O)Nc4cc(-c5cccs5)ccc4N)c3)nn2)c1
2,40%,COc1ccc(CCn2cc(-c3ccc(C(=O)Nc4cc(-c5cccs5)ccc4N)cc3)nn2)cc1
3,7%,Nc1ccc(-c2cccs2)cc1NC(=O)c1ccc(-c2cn(-c3ccc([N+](=O)[O-])cc3)nn2)s1
4,22%,Cc1ccc(CCn2cc(-c3ccc(C(=O)Nc4cc(-c5cccs5)ccc4N)s3)nn2)cc1
5,30%,Nc1ccc(-c2cccs2)cc1NC(=O)c1cccc(-c2cn(CCCCCCC(=O)O)nn2)c1
6,18%,Cc1ccc(CCn2cc(CCC(=O)Nc3cc(-c4cccnc4)ccc3N)nn2)cc1
7,14%,Nc1ccc(-c2cccs2)cc1NC(=O)c1cn(Cc2ccc(OC(F)(F)F)cc2)nn1
8,0%,Nc1ccc(-c2cccs2)cc1NC(=O)c1ccc(-c2cn(-c3ccc(Br)cc3)nn2)cc1
9,13%,Nc1ccc(-c2cccs2)cc1NC(=O)c1cccc(-c2cn(-c3ccc(O)cc3)nn2)c1
10,0%,Nc1ccc(-c2cccs2)cc1NC(=O)c1ccc(-c2cn(CCc3ccc(C(F)(F)F)cc3)nn2)cc1
11,19%,Cc1ccc(CCn2cc(-c3ccc(C(=O)Nc4cc(-c5cccs5)ccc4N)cc3)nn2)cc1
12,1%,Nc1ccc(-c2cccs2)cc1NC(=O)c1cn(CCCCCc2ccccc2)nn1
13,0%,Nc1ccc(-c2ccc(F)cc2)cc1NC(=O)c1cn(CCc2ccccc2C(F)(F)F)nn1
14,0%,Nc1ccc(-c2ccsc2)cc1NC(=O)c1cn(Cc2ccc(-c3ccccc3)cc2)nn1
15,6%,Nc1ccc(-c2cccs2)cc1NC(=O)c1cccc(-c2cn(Cc3ccc4ccccc4c3)nn2)c1
16,13%,Nc1ccc(-c2cccs2)cc1NC(=O)c1ccc(-c2cn(Cc3cccc4ccccc34)nn2)s1
17,0%,Nc1ccc(-c2cccs2)cc1NC(=O)c1cn(Cc2ccc(-c3ccccc3)cc2)nn1
18,0%,Nc1ccc(-c2cccs2)cc1NC(=O)c1ccc(-c2cn(Cc3cc4ccccc4s3)nn2)s1
19,6%,Nc1ccc(-c2cccs2)cc1NC(=O)c1cccc(-c2cn(C[S+]([O-])c3ccccc3)nn2)c1 (stereo not drawn)
20,75%,Nc1ccc(-c2cccs2)cc1NC(=O)c1ccc(-c2cn(CCN3CCOCC3)nn2)cc1
21,0%,Nc1ccc(-c2cccs2)cc1NC(=O)c1ccc(-c2cn(CCc3ccccc3C(F)(F)F)nn2)s1
22,16%,COc1ccc(CCn2cc(C(=O)Nc3cc(-c4ccc(F)cc4)ccc3N)nn2)cc1
23,13%,CCc1ccc(Cn2cc(C(=O)Nc3cc(-c4cccs4)ccc3N)nn2)cc1
24,10%,Cc1cccc(CCn2cc(C(=O)Nc3cc(-c4ccc(F)cc4)ccc3N)nn2)c1
25,0%,Nc1ccc(-c2cccs2)cc1NC(=O)c1cn(CC(=O)Nc2ccc(F)cc2)nn1
26,17%,Nc1ccc(-c2cccs2)cc1NC(=O)c1cccc(-c2cn(CCc3ccccc3)nn2)c1
27,0%,Nc1ccc(-c2cccs2)cc1NC(=O)c1cccc(-c2cn(CCc3ccc(C(F)(F)F)cc3)nn2)c1
28,5%,Nc1ccc(-c2cccs2)cc1NC(=O)c1ccc(-c2cn(CCc3ccccc3Cl)nn2)s1
